ChEMBL document CHEMBL1201862, “PubChem BioAssay data set” (2004)
Values joined by “and” are separate entries in the source; they are usually repeats but may differ in a detail not shown here. Equal entries are not always repeated.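 Tested at 5 concentrations; 48 h exposure; 96-well plates; endpoints linearly interpolated, else capped at highest concentration. At the GI50, growth is halved.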 Active and inactive are the calls of the source. Cut-off read from the data, not from the text of the source: active = GI50 up to about 1.1 µM and inactive = higher.

Assays:
Assay in all cases: NCI-60 cell line screen, 48 h
[1] = system: ACHN
[2] = system: HCC 2998
[3] = system: HCT-116
[4] = system: HL-60
[5] = system: HOP-62
[6] = system: HT-29
[7] = system: Hs-578T
[8] = system: K562
[9] = system: LOX IMVI
[10] = system: M14
[11] = system: NCI/ADR-RES
[12] = system: OVCAR-3
[13] = system: OVCAR-4
[14] = system: OVCAR-5
[15] = system: SF-539
[16] = system: SK-MEL-2
[17] = system: SK-OV-3
[18] = system: SNB-75
[19] = system: U-251
[20] = system: UACC-257

| SMILES | GI50 [1] | GI50 [2] | GI50 [3] | GI50 [4] | GI50 [5] | GI50 [6] | GI50 [7] | GI50 [8] | GI50 [9] | GI50 [10] | GI50 [11] | GI50 [12] | GI50 [13] | GI50 [14] | GI50 [15] | GI50 [16] | GI50 [17] | GI50 [18] | GI50 [19] | GI50 [20] |
| --- | --- | --- | --- | --- | --- | --- | --- | --- | --- | --- | --- | --- | --- | --- | --- | --- | --- | --- | --- | --- |
| CCC1=C(c2ccc(OC)cc2)CC[C@]2(CCNC2=O)[C@@H]1C | 25.6 µM (inactive) | 28.4 µM (inactive) | 23.6 µM (inactive) | 51.3 µM (inactive) | 51.2 µM (inactive) | 23.2 µM (inactive) | 24.5 µM (inactive) | 21.5 µM (inactive) | 25.1 µM (inactive) | 26.4 µM (inactive) | 31.2 µM (inactive) | 22.7 µM (inactive) | 22 µM (inactive) | 31.1 µM (inactive) | 28.2 µM (inactive) | 21.3 µM (inactive) | 45.8 µM (inactive) | 27.4 µM (inactive) | 29.9 µM (inactive) | 23.7 µM (inactive) |
| CC1=NN(C(=O)CC(=O)Nc2ccccc2Cl)C(=O)C1/N=N\c1ccc(S(=O)(=O)c2ccc(/N=N/C3C(=O)N(C(=O)CC(=O)Nc4ccccc4Cl)N=C3C)cc2)cc1 (stereo not given) | > 100 µM (inactive) | > 100 µM (inactive) | > 100 µM (inactive) | > 100 µM (inactive) | > 100 µM (inactive) | > 100 µM (inactive) | > 100 µM (inactive) | > 100 µM (inactive) | 54.1 µM (inactive) | > 100 µM (inactive) | > 100 µM (inactive) | > 100 µM (inactive) | > 100 µM (inactive) | > 100 µM (inactive) | > 100 µM (inactive) | > 100 µM (inactive) | > 100 µM (inactive) | > 100 µM (inactive) | > 100 µM (inactive) | > 100 µM (inactive) |
| C[C@@H]1CCC([C@@H](C)[C@H]2CC[C@H]3[C@@H]4CC[C@H]5C[C@@H](O)CC[C@]5(C)[C@H]4CC[C@]23C)=NC1 | 14 µM (inactive) | 6.52 µM (inactive) | 6.43 µM (inactive) | 1.36 µM (inactive) | 13.4 µM (inactive) | 2.45 µM (inactive) | 33.7 µM (inactive) | 3.68 µM (inactive) | 3.15 µM (inactive) | 4.73 µM (inactive) | 8.53 µM (inactive) | 20.4 µM (inactive) | 7.46 µM (inactive) | 24.4 µM (inactive) | 15 µM (inactive) | 14.1 µM (inactive) | 30.9 µM (inactive) | 19.1 µM (inactive) | 8.63 µM (inactive) | 25.3 µM (inactive) |
| COc1ccc2c(c1)CC[C@@H]1[C@@H]2CC[C@]2(C)/C(=N/OCCN3CCCCC3)CC[C@@H]12 | 8.81 µM (inactive) | 2.89 µM (inactive) | 2.38 µM (inactive) | 2.79 µM (inactive) | 6.25 µM (inactive) | 1.66 µM (inactive) | 6.76 µM (inactive) | 2.79 µM (inactive) | 1.66 µM (inactive) | 2.42 µM (inactive) | 10 µM (inactive) | 3.69 µM (inactive) | 12.2 µM (inactive) | 5.33 µM (inactive) | 2.77 µM (inactive) | 6.07 µM (inactive) | 10.3 µM (inactive) | 5.69 µM (inactive) | 8.09 µM (inactive) | 2.55 µM (inactive) |
| CC(=O)Oc1c(OC(C)C)cc(=O)n2ccsc12 | > 100 µM (inactive) | > 100 µM (inactive) | > 100 µM (inactive) | 18.5 µM (inactive) | > 100 µM (inactive) | > 100 µM (inactive) | > 100 µM (inactive) | 42.8 µM (inactive) | > 100 µM (inactive) | > 100 µM (inactive) | > 100 µM (inactive) | 78.2 µM (inactive) | > 100 µM (inactive) | > 100 µM (inactive) | > 100 µM (inactive) | > 100 µM (inactive) | > 100 µM (inactive) | > 100 µM (inactive) | > 100 µM (inactive) | > 100 µM (inactive) |
| CC(C)[Si]1(C(C)C)OCC2OC(N3C(=O)NC(=O)C[C@@H]3C(O)c3ccccc3)CC2O[Si](C(C)C)(C(C)C)O1 (stereo not given in full) | 7.11 µM (inactive) | 2.05 µM (inactive) | 4.36 µM (inactive) | 2.65 µM (inactive) | 11.9 µM (inactive) | 2.48 µM (inactive) | 3.3 µM (inactive) | 2.76 µM (inactive) | 5.24 µM (inactive) | 12.7 µM (inactive) | 5.32 µM (inactive) | 4.83 µM (inactive) | 4.51 µM (inactive) | 13.5 µM (inactive) | 17 µM (inactive) | 13.4 µM (inactive) | 5.71 µM (inactive) | 4.54 µM (inactive) | 3.24 µM (inactive) | 4.85 µM (inactive) |
| COC(=O)N/N=C(/c1nc2ccc([N+](=O)[O-])cc2nc1O)C(O)c1ccc(OC)c(OC)c1 (stereo not given) | > 100 µM (inactive) | > 100 µM (inactive) | 97.1 µM (inactive) | > 68.5 µM (inactive) | > 60.5 µM (inactive) | > 72.9 µM (inactive) | 59 µM (inactive) | 55.2 µM (inactive) | 28.5 µM (inactive) | > 100 µM (inactive) | 92 µM (inactive) | > 54.7 µM (inactive) | > 100 µM (inactive) | > 100 µM (inactive) | > 100 µM (inactive) | > 100 µM (inactive) | > 100 µM (inactive) | > 100 µM (inactive) | > 100 µM (inactive) | 47.1 µM (inactive) |
| O=C(C1OC1c1ccc([N+](=O)[O-])cc1)C12CC3CC(CC(C3)C1)C2 (stereo not given) | 18.5 µM (inactive) | 20.7 µM (inactive) | 7.59 µM (inactive) | 3.46 µM (inactive) | 24.3 µM (inactive) | 21.4 µM (inactive) | 19 µM (inactive) | 13.1 µM (inactive) | 1.69 µM (inactive) | 15.2 µM (inactive) | 17.6 µM (inactive) | 13.7 µM (inactive) | 17.8 µM (inactive) | 21 µM (inactive) | 15.3 µM (inactive) | 23.4 µM (inactive) | 23.2 µM (inactive) | 19.1 µM (inactive) | 11.9 µM (inactive) | 14.7 µM (inactive) |
| COc1cc([C@H]2OC[C@H]3[C@@H]2CO[C@@H]3c2cc(OC)c3c(c2)OCO3)cc(OC)c1OC | 39.1 µM (inactive) | 56 µM (inactive) and 27.9 µM (inactive) | 41.6 µM (inactive) and 70.3 µM (inactive) | 40 µM (inactive) and > 10 µM (inactive) | 55.6 µM (inactive) | 37.3 µM (inactive) and 54.6 µM (inactive) | 51.3 µM (inactive) and 59.3 µM (inactive) | 39.4 µM (inactive) and 73.3 µM (inactive) | 70.6 µM (inactive) and 96.8 µM (inactive) | 65.3 µM (inactive) | 23.4 µM (inactive) and 33.3 µM (inactive) | 87.1 µM (inactive) | 48.5 µM (inactive) and 43.7 µM (inactive) | > 100 µM (inactive) | > 100 µM (inactive) | > 100 µM (inactive) | > 100 µM (inactive) | 46.6 µM (inactive) and 84.5 µM (inactive) | 83 µM (inactive) and 57.9 µM (inactive) | 79.4 µM (inactive) and 50.2 µM (inactive) |
| CC1CC(C)[C@H](O)C([C@H](O)CC2CC(=O)N(C)C(=O)C2)C1 (stereo not given in full) | > 100 µM (inactive) | > 100 µM (inactive) | > 100 µM (inactive) | > 100 µM (inactive) | > 100 µM (inactive) | > 100 µM (inactive) | > 100 µM (inactive) | > 100 µM (inactive) | > 100 µM (inactive) | > 100 µM (inactive) | > 100 µM (inactive) | > 100 µM (inactive) | > 100 µM (inactive) | > 100 µM (inactive) | > 100 µM (inactive) | > 100 µM (inactive) | > 100 µM (inactive) | 95.1 µM (inactive) | > 100 µM (inactive) | > 100 µM (inactive) |
| COC(=O)C(Cc1ccc(OC)cc1O)NC(=O)OC(C)(C)C (stereo not given) | > 100 µM (inactive) | > 100 µM (inactive) | > 100 µM (inactive) | > 100 µM (inactive) | > 100 µM (inactive) | > 100 µM (inactive) | > 100 µM (inactive) | > 100 µM (inactive) | > 100 µM (inactive) | > 100 µM (inactive) | > 100 µM (inactive) | > 100 µM (inactive) | > 100 µM (inactive) | > 100 µM (inactive) | > 100 µM (inactive) | > 100 µM (inactive) | > 100 µM (inactive) | > 100 µM (inactive) | > 100 µM (inactive) | 22.1 µM (inactive) |
| CC(Oc1ccccc1)C(=O)NNC(=O)OC(C)(C)C (stereo not given) | > 100 µM (inactive) | > 100 µM (inactive) | > 100 µM (inactive) | > 100 µM (inactive) | > 100 µM (inactive) | > 100 µM (inactive) | > 100 µM (inactive) | > 100 µM (inactive) | > 100 µM (inactive) | > 100 µM (inactive) | > 100 µM (inactive) | > 100 µM (inactive) | > 100 µM (inactive) | > 100 µM (inactive) | > 100 µM (inactive) | > 100 µM (inactive) | > 100 µM (inactive) | > 100 µM (inactive) | > 100 µM (inactive) | > 100 µM (inactive) |
| CN(C)CCNc1ccc2c(=O)n(CCN(C)C)c(=O)n3c4ccccc4c(=O)c1c23 | 0.0161 µM (active) | < 0.0164 µM (active) | 0.0269 µM (active) | < 0.01 µM (active) | 0.0185 µM (active) | 0.0502 µM (active) | 0.305 µM (active) | 0.0133 µM (active) | 0.0624 µM (active) | 0.0836 µM (active) | 0.14 µM (active) | 0.218 µM (active) | 0.27 µM (active) | 0.318 µM (active) | 0.0321 µM (active) | 0.399 µM (active) | < 0.0392 µM (active) | 0.0513 µM (active) | 0.0402 µM (active) | 0.34 µM (active) |
